In PubChem BioAssay (NCI):
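Values below derive from 48-hour exposures of cells grown in 96-well plates, with endpoints linearly interpolated between the two concentrations bracketing the appropriate inhibition level. Abbreviation: GI50, concentration required for 50% inhibition of growth. TGI marks complete inhibition of growth.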

Assays:
Assay in all cases: inhibition of tumour cell growth, NCI panel, 48 h
786-0 renal = system: 786-0 renal
A498 renal = system: A498 renal
A549 NSCLC = system: A549 NSCLC
ACHN renal = system: ACHN renal
CCRF-CEM leukemia = system: CCRF-CEM leukemia
COLO 205 colon = system: COLO 205 colon
DLD-1 colon = system: DLD-1 colon
DMS 114 small cell lung = system: DMS 114 small cell lung
DMS 273 small cell lung = system: DMS 273 small cell lung
EKVX NSCLC = system: EKVX NSCLC
HCC-2998 colon = system: HCC-2998 colon
HCT-116 colon = system: HCT-116 colon
HCT-15 colon = system: HCT-15 colon
HL-60(TB) leukemia = system: HL-60(TB) leukemia
HOP-62 NSCLC = system: HOP-62 NSCLC
HOP-92 NSCLC = system: HOP-92 NSCLC
HT29 colon = system: HT29 colon
IGROV1 ovarian = system: IGROV1 ovarian
K-562 leukemia = system: K-562 leukemia
KM12 colon = system: KM12 colon
KM20L2 colon = system: KM20L2 colon
LOX IMVI melanoma = system: LOX IMVI melanoma
LXFL 529 NSCLC = system: LXFL 529 NSCLC
M14 melanoma = system: M14 melanoma
M19-MEL melanoma = system: M19-MEL melanoma
MALME-3M melanoma = system: MALME-3M melanoma
MOLT-4 leukemia = system: MOLT-4 leukemia
NCI-H226 lung = system: NCI-H226 lung
NCI-H23 lung = system: NCI-H23 lung
NCI-H460 lung = system: NCI-H460 lung
OVCAR-3 ovarian = system: OVCAR-3 ovarian
OVCAR-4 ovarian = system: OVCAR-4 ovarian
OVCAR-5 ovarian = system: OVCAR-5 ovarian
OVCAR-8 ovarian = system: OVCAR-8 ovarian
RPMI-8226 leukemia = system: RPMI-8226 leukemia
RXF 393 renal = system: RXF 393 renal
SF-268 CNS = system: SF-268 CNS
SF-295 CNS = system: SF-295 CNS
SF-539 CNS = system: SF-539 CNS
SK-MEL-2 melanoma = system: SK-MEL-2 melanoma
SK-MEL-28 melanoma = system: SK-MEL-28 melanoma
SK-MEL-5 melanoma = system: SK-MEL-5 melanoma
SK-OV-3 ovarian = system: SK-OV-3 ovarian
SN12C renal = system: SN12C renal
SNB-19 CNS = system: SNB-19 CNS
SNB-75 CNS = system: SNB-75 CNS
SNB-78 CNS = system: SNB-78 CNS
SW-620 colon = system: SW-620 colon
TK-10 renal = system: TK-10 renal
U251 CNS = system: U251 CNS
UACC-257 melanoma = system: UACC-257 melanoma
UACC-62 melanoma = system: UACC-62 melanoma
UO-31 renal = system: UO-31 renal
XF 498 CNS = system: XF 498 CNS
CAKI-1 renal = system: CAKI-1 renal
HOP-18 NSCLC = system: HOP-18 NSCLC
NCI-H522 lung = system: NCI-H522 lung
SR leukemia = system: SR leukemia

## Brc1cc2c(cc1Br)CN(c1ccccc1)C2
786-0 renal
  TGI: > 100 µM
A498 renal
  TGI: > 100 µM
A549 NSCLC
  TGI: > 100 µM
ACHN renal
  TGI: > 100 µM
CCRF-CEM leukemia
  TGI: > 100 µM
COLO 205 colon
  TGI: > 100 µM
DLD-1 colon
  TGI: > 100 µM
DMS 114 small cell lung
  TGI: > 100 µM
DMS 273 small cell lung
  TGI: > 100 µM
EKVX NSCLC
  TGI: > 100 µM
HCC-2998 colon
  TGI: > 100 µM
HCT-116 colon
  TGI: > 100 µM
HCT-15 colon
  TGI: > 100 µM
HL-60(TB) leukemia
  TGI: > 100 µM
HOP-62 NSCLC
  TGI: > 100 µM
HOP-92 NSCLC
  TGI: > 100 µM
HT29 colon
  TGI: > 100 µM
IGROV1 ovarian
  TGI: > 100 µM
K-562 leukemia
  TGI: > 100 µM
KM12 colon
  TGI: > 100 µM
KM20L2 colon
  TGI: > 100 µM
LOX IMVI melanoma
  TGI: > 100 µM
LXFL 529 NSCLC
  TGI: > 100 µM
M14 melanoma
  TGI: > 100 µM
M19-MEL melanoma
  TGI: > 100 µM
MALME-3M melanoma
  TGI: > 100 µM
MOLT-4 leukemia
  TGI: > 100 µM
NCI-H226 lung
  TGI: > 100 µM
NCI-H23 lung
  TGI: > 100 µM
NCI-H460 lung
  TGI: > 100 µM
OVCAR-3 ovarian
  TGI: > 100 µM
OVCAR-4 ovarian
  TGI: > 100 µM
OVCAR-5 ovarian
  TGI: > 100 µM
OVCAR-8 ovarian
  TGI: > 100 µM
RPMI-8226 leukemia
  TGI: > 100 µM
RXF 393 renal
  TGI: > 100 µM
SF-268 CNS
  TGI: > 100 µM
SF-295 CNS
  TGI: > 100 µM
SF-539 CNS
  TGI: > 100 µM
SK-MEL-2 melanoma
  TGI: > 100 µM
SK-MEL-28 melanoma
  TGI: > 100 µM
SK-MEL-5 melanoma
  TGI: > 100 µM
SK-OV-3 ovarian
  TGI: > 100 µM
SN12C renal
  TGI: > 100 µM
SNB-19 CNS
  TGI: > 100 µM
SNB-75 CNS
  TGI: > 100 µM
SNB-78 CNS
  TGI: > 100 µM
SW-620 colon
  TGI: > 100 µM
TK-10 renal
  TGI: > 100 µM
U251 CNS
  TGI: > 100 µM
UACC-257 melanoma
  TGI: > 100 µM
UACC-62 melanoma
  TGI: > 100 µM
UO-31 renal
  TGI: > 100 µM
XF 498 CNS
  TGI: > 100 µM

## CC(=O)[CH-]C(=O)c1ccccc1.CC(=O)[CH-]C(=O)c1ccccc1.CC[O-].O=C1c2ccccc2C(=O)c2c1ccc(O)c2[O-].[Ti+4]
786-0 renal
  TGI: > 100 µM
A498 renal
  TGI: 83.5 µM
A549 NSCLC
  TGI: > 100 µM
ACHN renal
  TGI: > 100 µM
CAKI-1 renal
  TGI: > 100 µM
CCRF-CEM leukemia
  TGI: 56.6 µM
COLO 205 colon
  TGI: > 100 µM
DLD-1 colon
  TGI: > 100 µM
DMS 273 small cell lung
  TGI: > 100 µM
EKVX NSCLC
  TGI: 83.2 µM
HCC-2998 colon
  TGI: > 100 µM
HCT-116 colon
  TGI: > 100 µM
HCT-15 colon
  TGI: > 100 µM
HL-60(TB) leukemia
  GI50: 19.6 µM
  TGI: 56.6 µM
HOP-18 NSCLC
  GI50: 23.1 µM
  TGI: 88.3 µM
HOP-62 NSCLC
  TGI: > 100 µM
HOP-92 NSCLC
  TGI: > 100 µM
HT29 colon
  TGI: > 100 µM
IGROV1 ovarian
  TGI: > 100 µM
K-562 leukemia
  TGI: > 100 µM
KM12 colon
  TGI: > 100 µM
KM20L2 colon
  GI50: 80.5 µM
  TGI: > 100 µM
LOX IMVI melanoma
  TGI: > 100 µM
LXFL 529 NSCLC
  TGI: > 100 µM
M14 melanoma
  TGI: > 100 µM
M19-MEL melanoma
  TGI: 80.2 µM
MALME-3M melanoma
  GI50: 25.6 µM
  TGI: 61 µM
MOLT-4 leukemia
  TGI: 61.2 µM
NCI-H226 lung
  TGI: > 100 µM
NCI-H23 lung
  TGI: > 100 µM
NCI-H460 lung
  TGI: > 100 µM
NCI-H522 lung
  TGI: 60.3 µM
OVCAR-3 ovarian
  TGI: > 100 µM
OVCAR-4 ovarian
  TGI: > 100 µM
OVCAR-5 ovarian
  TGI: > 100 µM
OVCAR-8 ovarian
  TGI: > 100 µM
RPMI-8226 leukemia
  TGI: 64.7 µM
SF-268 CNS
  TGI: > 100 µM
SF-295 CNS
  TGI: > 100 µM
SF-539 CNS
  TGI: > 100 µM
SK-MEL-2 melanoma
  TGI: > 100 µM
SK-MEL-28 melanoma
  TGI: > 100 µM
SK-MEL-5 melanoma
  GI50: 30.4 µM
  TGI: > 100 µM
SK-OV-3 ovarian
  GI50: 52.5 µM
  TGI: > 100 µM
SN12C renal
  TGI: > 100 µM
SNB-19 CNS
  TGI: > 100 µM
SNB-75 CNS
  TGI: > 100 µM
SW-620 colon
  TGI: > 100 µM
U251 CNS
  TGI: > 100 µM
UACC-257 melanoma
  TGI: > 100 µM
UACC-62 melanoma
  TGI: > 100 µM
UO-31 renal
  TGI: 86.9 µM

## NC(CSSCC(N)Cc1ccccc1)Cc1ccccc1 (configuration not stated)
786-0 renal
  TGI: > 100 µM
A498 renal
  TGI: > 100 µM
A549 NSCLC
  TGI: > 100 µM
ACHN renal
  TGI: > 100 µM
CCRF-CEM leukemia
  TGI: > 100 µM
COLO 205 colon
  TGI: > 100 µM
DLD-1 colon
  TGI: > 100 µM
DMS 114 small cell lung
  TGI: > 100 µM
EKVX NSCLC
  TGI: > 100 µM
HCC-2998 colon
  TGI: > 100 µM
HCT-116 colon
  TGI: > 100 µM
HCT-15 colon
  TGI: > 100 µM
HL-60(TB) leukemia
  TGI: 74.4 µM
HOP-62 NSCLC
  TGI: > 100 µM
HT29 colon
  TGI: > 100 µM
IGROV1 ovarian
  TGI: > 100 µM
K-562 leukemia
  TGI: > 100 µM
KM12 colon
  TGI: 94 µM
KM20L2 colon
  TGI: > 100 µM
LOX IMVI melanoma
  TGI: 84.4 µM
LXFL 529 NSCLC
  TGI: > 100 µM
M14 melanoma
  TGI: 63.4 µM
M19-MEL melanoma
  TGI: > 100 µM
MALME-3M melanoma
  TGI: > 100 µM
MOLT-4 leukemia
  TGI: > 100 µM
NCI-H23 lung
  TGI: > 100 µM
NCI-H460 lung
  TGI: > 100 µM
NCI-H522 lung
  TGI: 30.9 µM
OVCAR-3 ovarian
  TGI: > 100 µM
OVCAR-4 ovarian
  TGI: > 100 µM
OVCAR-5 ovarian
  TGI: > 100 µM
OVCAR-8 ovarian
  TGI: > 100 µM
RPMI-8226 leukemia
  TGI: > 100 µM
SF-268 CNS
  TGI: > 100 µM
SF-295 CNS
  TGI: > 100 µM
SK-MEL-2 melanoma
  TGI: 88.7 µM
SK-MEL-28 melanoma
  TGI: > 100 µM
SK-MEL-5 melanoma
  TGI: 50.4 µM
SK-OV-3 ovarian
  TGI: > 100 µM
SN12C renal
  TGI: > 100 µM
SNB-19 CNS
  TGI: > 100 µM
SNB-78 CNS
  TGI: > 100 µM
SR leukemia
  TGI: 91.7 µM
SW-620 colon
  TGI: > 100 µM
TK-10 renal
  TGI: > 100 µM
U251 CNS
  TGI: > 100 µM
UACC-257 melanoma
  TGI: > 100 µM
UACC-62 melanoma
  TGI: 44.9 µM
UO-31 renal
  TGI: > 100 µM
XF 498 CNS
  TGI: 57.2 µM
